≈ marks a conversion by molar mass, not a printed value.
Experiments:
P. rettgeri [1] = assay: MIC by Etest on Mueller-Hinton agar (Example 1); type: cell-based, Proteus rettgeri; conditions: Providencia rettgeri; P. rettgeri RAP (9); OXA-181 + OXA-1
Procedure: (§1) Prior to performing the method of the invention, susceptibility testings were performed by determining Minimum Inhibitory Concentration (MIC) values by the Etest® (AB bioMérieux; Solna, Sweden) on Mueller-Hinton agar plates at 37° C. and results of susceptibility testing were recorded according to the Clinical and Laboratory Standards Institute (CLSI) guidelines as modified in June 2010 (18). The breakpoints for imipenem are S≦1 μg/ml (susceptibility) and R≧4 μg/ml (resistant). As for those for ertapenem, they are S≦0.25 μg/ml and R≧1 μg/ml (see Tables 1 and 2).

P. rettgeri [2] = assay: MIC of carbapenem by Etest (Example 2); type: cell-based, Proteus rettgeri
Procedure: (§2) All strains had previously been characterized for their β-lactamase content at the molecular level. Minimum inhibitory concentration of carbapenem were determined using the Etest® (AB bioMérieux, Solna, Sweden) and results were recorded according to US guidelines (CLSI), as updated in 2011.

K. pneumoniae [3] = assay: MIC of carbapenem by Etest (Example 2); type: cell-based, Klebsiella pneumoniae
Procedure: as §2

E. sakazaki = assay: MIC of carbapenem by Etest (Example 2); type: cell-based; conditions: ESBL + decreased membrane permeability; E. sakazaki CTX-M-15, n=1
Procedure: as §2

K. ozonae = assay: MIC of carbapenem by Etest (Example 2); type: cell-based; conditions: K. ozonae KPC-3, n=1
Procedure: as §2

Salmonella spp. = assay: MIC of carbapenem by Etest (Example 2); type: cell-based; conditions: Salmonella spp. KPC-2, n=1
Procedure: as §2

C. freundii [4] = assay: MIC of carbapenem by Etest (Example 2); type: cell-based, Citrobacter freundii
Procedure: as §2

S. marcescens = assay: MIC of carbapenem by Etest (Example 2); type: cell-based, Serratia marcescens
Procedure: as §2

P. stuartii [5] = assay: MIC by Etest on Mueller-Hinton agar (Example 1); type: cell-based; conditions: Providencia stuartii, NDM-1 + OXA-1 + CMY-6
Procedure: as §1

C. freundii [6] = assay: MIC by Etest on Mueller-Hinton agar (Example 1); type: cell-based; conditions: Citrobacter freundii; C. freundii STE (13); NDM-1 + OXA-1 + OXA-9 + OXA-10 + CTX-M-15 + TEM-1
Procedure: as §1

K. pneumoniae [7] = assay: MIC by Etest on Mueller-Hinton agar (Example 1); type: cell-based; conditions: Klebsiella pneumoniae
Procedure: as §1

P. mirabilis [8] = assay: MIC by Etest on Mueller-Hinton agar (Example 1); type: cell-based; conditions: Proteus mirabilis, plasmid mediated cephalosporinase ACC-1
Procedure: as §1

E. cloacae = assay: MIC by Etest on Mueller-Hinton agar (Example 1); type: cell-based; conditions: Enterobacter cloacae
Procedure: as §1

P. mirabilis [9] = assay: MIC of carbapenem by Etest (Example 2); type: cell-based, Proteus mirabilis; conditions: Plasmid mediated AmpC or chromosomal AmpC + decreased membrane permeability; P. mirabilis ACC-1, n=1
Procedure: as §2

M. morganii = assay: MIC of carbapenem by Etest (Example 2); type: cell-based, Morganella morganii; conditions: Plasmid mediated AmpC or chromosomal AmpC + decreased membrane permeability; M. morganii Overexpressed cephalosporinase, n=2
Procedure: as §2

P. stuartii [10] = assay: MIC of carbapenem by Etest (Example 2); type: cell-based, Providencia stuartii; conditions: P. stuartii NDM-1, n=1
Procedure: as §2

E. coli = assay: MIC of carbapenem by Etest (Example 2); type: cell-based, Escherichia coli
Procedure: as §2

E. aerogenes = assay: MIC of carbapenem by Etest (Example 2); type: cell-based, Enterobacter aerogenes
Procedure: as §2

E. asburiae = assay: MIC of carbapenem by Etest (Example 2); type: cell-based, Enterobacter asburiae; conditions: E. asburiae IMI-2, n=1
Procedure: as §2

C[C@@H](O)[C@H]1C(=O)N2C(C(=O)O)=C(S[C@@H]3CN[C@H](C(=O)Nc4cccc(C(=O)O)c4)C3)[C@H](C)[C@H]12 [ERT, ertapenem]
MIC (P. rettgeri [1]): 2 µg/mL
MICs range (P. rettgeri [2]; P. rettgeri NDM-1, n=1): 0.5 mg/L
MICs range (P. rettgeri [2]; P. rettgeri OXA-181, n=1): 1 mg/L
MICs range (K. pneumoniae [3]; ESBL + decreased membrane permeability, K. pneumoniae SHV-2a, n=1): 2 mg/L
MICs range (K. pneumoniae [3]; ESBL + decreased membrane permeability, K. pneumoniae SHV-28, n=1): 4 mg/L
MICs range (K. pneumoniae [3]; ESBLs, K. pneumoniae CTX-M-3, n=1): 0.12 mg/L
MICs range (K. pneumoniae [3]; ESBLs, K. pneumoniae CTX-M-14, n=1): 0.12 mg/L
MICs range (K. pneumoniae [3]; ESBLs, K. pneumoniae CTX-M-15, n=3): 0.12 mg/L
MICs range (K. pneumoniae [3]; K. pneumoniae IMP-1, n=5): 2 to 4 mg/L
MICs range (K. pneumoniae [3]; K. pneumoniae IMP-8, n=2): 0.5 to 1^ mg/L
MICs range (K. pneumoniae [3]; K. pneumoniae NDM-4, n=1): >32 mg/L
MICs range (K. pneumoniae [3]; K. pneumoniae OXA-181, n=2): 2 to 4 mg/L
MICs range (K. pneumoniae [3]; K. pneumoniae VIM-19, n=1): 16 mg/L
MICs range (K. pneumoniae [3]; Plasmid mediated AmpC or chromosomal AmpC + decreased membrane permeability, K. pneumoniae DHA-1, n=1): >32 mg/L
MICs range (K. pneumoniae [3]; Plasmid mediated AmpC or chromosomal AmpC + decreased membrane permeability, K. pneumoniae DHA-2, n=1): 0.5 mg/L
MICs range (E. sakazaki): 1.5 mg/L
MICs range (K. ozonae): >32 mg/L
MICs range (Salmonella spp.): 1 mg/L
MICs range (C. freundii [4]; C. freundii NDM-1, n=1): >32 mg/L
MICs range (C. freundii [4]; ESBL + decreased membrane permeability, C. freundii TEM-3, n=1): 8 mg/L
MICs range (S. marcescens; S. marcescens IMP-1, n=2): >32 mg/L
MICs range (S. marcescens; S. marcescens IMP-11, n=1): >32 mg/L
MICs range (S. marcescens; S. marcescens KPC-2, n=2): >32 mg/L
MICs range (S. marcescens; S. marcescens SME-1, n=1): 4 mg/L
MICs range (S. marcescens; S. marcescens SME-2, n=1): 4 mg/L
MICs range (S. marcescens; S. marcescens VIM-2, n=1): >32 mg/L
MIC (P. stuartii [5]): > 32 µg/mL
MIC (C. freundii [6]): > 32 µg/mL
MIC (K. pneumoniae [7]; CIP53153, K. pneumoniae CIP53153 (30), wild-type): 0.19 µg/mL (≈ 0.4 µM)
MIC (K. pneumoniae [7]; K. pneumoniae 1 OMA (11), NDM-1 + CTX-M-15 + OXA-1 + OXA-9): > 32 µg/mL
MIC (K. pneumoniae [7]; K. pneumoniae 2 OMA, NDM-1 + OXA-1): > 32 µg/mL
MIC (K. pneumoniae [7]; K. pneumoniae 7 AFR, NDM-1 + OXA-1 + CTX-M-15 + CMY-6 + TEM-1): > 32 µg/mL
MIC (K. pneumoniae [7]; K. pneumoniae 6299 (19), ESBL OXA-163): 0.19 µg/mL (≈ 0.4 µM)
MIC (K. pneumoniae [7]; K. pneumoniae 6759 GEN, NDM-1 + CTX-M-15 + OXA-1 + OXA-9 + OXA-10 + CMY16): 32 µg/mL
MIC (K. pneumoniae [7]; K. pneumoniae (16), ESBL CTX-M-15): 0.19 µg/mL (≈ 0.4 µM)
MIC (K. pneumoniae [7]; K. pneumoniae BEL, OXA-48): 4 µg/mL (≈ 8.41 µM)
MIC (K. pneumoniae [7]; K. pneumoniae BER (28), porin deficiency associated with ESBL, TEM): 0.75 µg/mL (≈ 1.58 µM)
MIC (K. pneumoniae [7]; K. pneumoniae BIC (4), OXA-48): 2 µg/mL (≈ 4.21 µM)
MIC (K. pneumoniae [7]; K. pneumoniae CHA (5), OXA-48 + TEM-1): 1 µg/mL
MIC (K. pneumoniae [7]; K. pneumoniae COO (27), porin deficiency associated with ESBL, CTX-M-15 + SHV-28): 0.75 µg/mL
MIC (K. pneumoniae [7]; K. pneumoniae DIN, NDM-1): 32 µg/mL (≈ 67.3 µM)
MIC (K. pneumoniae [7]; K. pneumoniae EGY, OXA-48 + CTX-M-15): 3 µg/mL
MIC (K. pneumoniae [7]; K. pneumoniae H1516-6 COL (3), KPC-2 + TEM-1 + CTXM-15): 3 µg/mL
MIC (K. pneumoniae [7]; K. pneumoniae HOL, OXA-181 + CTX-M-15): 1 µg/mL
MIC (K. pneumoniae [7]; K. pneumoniae IND, NDM-1 + OXA-1 + CTX-M-15): 8 µg/mL
MIC (K. pneumoniae [7]; K. pneumoniae MAD (15), IMP-13): 2 µg/mL (≈ 4.21 µM)
MIC (K. pneumoniae [7]; K. pneumoniae MAD, VIM-1 + CTX-M-3): > 32 µg/mL
MIC (K. pneumoniae [7]; K. pneumoniae OMA (8), OXA-181 + CTXM-15 + OXA-1): 2 µg/mL
MIC (K. pneumoniae [7]; K. pneumoniae RAM, OXA-48): 2 µg/mL (≈ 4.21 µM)
MIC (K. pneumoniae [7]; K. pneumoniae SAB, NDM-1): 8 µg/mL (≈ 16.8 µM)
MIC (K. pneumoniae [7]; K. pneumoniae UK (10), NDM-1 + CTX-M-15 + CMY-4 + OXA-1): 32 µg/mL
MIC (P. mirabilis [8]): 0.19 µg/mL (≈ 0.4 µM)
MIC (E. cloacae; E. cloacae 2185, ESBL OXA-163): 0.19 µg/mL (≈ 0.4 µM)
MIC (E. cloacae; E. cloacae (1), KPC-2): 6 µg/mL (≈ 12.6 µM)
MIC (E. cloacae; E. cloacae (17), ESBL CTX-M-15): 0.19 µg/mL (≈ 0.4 µM)
MIC (E. cloacae; E. cloacae ARF (25), overexpression of chromosomal cephalosporinase AmpC): 0.5 µg/mL (≈ 1.05 µM)
MIC (E. cloacae; E. cloacae BLA, overexpression of chromosomal cephalosporinase AmpC): 0.5 µg/mL (≈ 1.05 µM)
MIC (E. cloacae; E. cloacae CON (26), overexpression of chromosomal cephalosporinase AmpC): 0.75 µg/mL (≈ 1.58 µM)
MIC (E. cloacae; E. cloacae IR38, NDM-1 + CTX-M-15): > 32 µg/mL
MIC (E. cloacae; E. cloacae TUR (6), OXA-48 + SHV-5): 1 µg/mL
MIC (E. cloacae; E. cloacae, ESBL VEB-1): 0.19 µg/mL (≈ 0.4 µM)
MICs range (P. mirabilis [9]): 0.12 mg/L
MICs range (M. morganii): 0.12 mg/L
MICs range (P. stuartii [10]): 0.38 mg/L
MICs range (E. coli; E. coli IMP-1, n=2): 3 to 4 mg/L
MICs range (E. coli; E. coli IMP-8, n=1): 8 mg/L
MICs range (E. coli; E. coli OXA-48, n=6): 0.5 to 16 mg/L
MICs range (E. coli; E. coli VIM-1, n=2): 0.38 to 1.5 mg/L
MICs range (E. coli; E. coli VIM-2, n=2): 0.5 to 1.5 mg/L
MICs range (E. coli; E. coli VIM-19, n=1): 16 mg/L
MICs range (E. coli; ESBLs, E. coli CTX-M-1, n=1): 0.12 mg/L
MICs range (E. coli; ESBLs, E. coli CTX-M-3, n=1): 0.12 mg/L
MICs range (E. coli; ESBLs, E. coli CTX-M-14, n=2): 0.12 mg/L
MICs range (E. coli; ESBLs, E. coli CTX-M-15, n=2): 0.12 mg/L
MICs range (E. coli; ESBLs, E. coli VEB-1, n=1): 0.12 mg/L
MICs range (E. coli; Plasmid mediated AmpC or chromosomal AmpC + decreased membrane permeability, E. coli ACC-1, n=1): 0.12 mg/L
MICs range (E. coli; Plasmid mediated AmpC or chromosomal AmpC + decreased membrane permeability, E. coli CMY-2, n=1): 0.12 mg/L
MICs range (E. coli; Plasmid mediated AmpC or chromosomal AmpC + decreased membrane permeability, E. coli CMY-10, n=1): 0.38 mg/L
MICs range (E. coli; Plasmid mediated AmpC or chromosomal AmpC + decreased membrane permeability, E. coli DHA-1, n=1): 0.12 mg/L
MICs range (E. coli; Plasmid mediated AmpC or chromosomal AmpC + decreased membrane permeability, E. coli Extended spectrum cephalosporinase, n=1): 0.12 mg/L
MICs range (E. coli; Plasmid mediated AmpC or chromosomal AmpC + decreased membrane permeability, E. coli Overexpressed cephalosporinase, n=1): >32 mg/L
MICs range (E. aerogenes; E. aerogenes KPC-2, n=1): >32 mg/L
MICs range (E. aerogenes; Plasmid mediated AmpC or chromosomal AmpC + decreased membrane permeability, E. aerogenes Overexpressed cephalosporinase, n=1): 4 mg/L
MICs range (E. asburiae): >32 mg/L

Source: patent publication US9340819B2, “Method for detecting the presence of carbapenemase-producing bacteria in a sample” (priority 2011, dated 2016)
